Patent publication US20070078085A1, “Methods and compositions for the utilization and targeting of osteomimicry” (priority 2004, published 2007)

Assays:
Format in all cases: cell-based, human
hOC promoter = test: hOC promoter-luciferase reporter activity in transfected cells; settings: C4-2B cells
Excerpt: Plasmid Construction. Genomic DNA was used in the PCR of the 0.8-kb hOC promoter inserting KpnI and XhoI sites, subsequently cloned into pGL3-Basic-luciferase reporter vector (Promega, Madison, Wis.) as described before (9). The deletion constructs, ΔA [374 bp upstream of AP1/VDRE (AV) element], ΔTst-1 (POU-factor Tst-1/Oct-6 binding site), ΔCRE (cAMP-responsive element) and ΔIRF-1 (interferon regulatory factor-i binding site) in hOC promoter/pGL3 were generated by recombinant PCR technique. The point mutation plasmids in CRE (from -643 to -636 in hOC promoter, 5′-[…]-3′) were constructed with a QuikChange Site-Directed Mutagenesis Kit (Stratagene). The mutation constructs (see below) are one-point substitution mutants, Mut1 (-642 G→T), Mut2 (-641 A→C), Mut3 (-640 C→A), Mut4 (-639 C→A) and Mut5 (-638 T→G), a two-point substitution mutant, Mut6 (-640 and -639 CC→AA), and a two-point deletion construct, Mut7 (-640 and -639 CC→XX). The 1.5-kb hBSP promoter construct prepared in the pGL3-luciferase reporter vector has been described previously (36). The single deletion constructs ΔCRE1 (-79 to -72) and ΔCRE2 (-674 to -667), and a double deletion construct ΔCRE2/CRE1 in the hBSP promoter/pGL3-luciferase plasmid were generated by recombinant PCR technique. All plasmid constructs were confirmed by DNA sequencing.
Transfection and Luciferase Activity Assay. Cells were trypsinized and seeded at a density of 1.5×10^5 cells/well (LNCaP, C4-2B, DU145 and ARCaP) and 1.0×10^5 cells/well (PC3 and MG63) in 12-well plates 24 h before transfection. Plasmid DNAs were introduced into cells by complexing with a commercial reagent DOTAP (Roche Molecular Biochemicals) according to the manufacturer's protocol. Each transfection reaction contained 1.25 μg of tested DNA constructs and 0.25 μg of the transfection efficiency control CMV promoter-driven β-galactosidase plasmid DNA. After 6 h transfection, DNA-liposome mixtures were replaced by fresh T-medium or CM. Tansfected cells were harvested and lysed in 1× Reporter Lysis buffer (Promega) after 36 h additional incubation. Cell lysates were vortexed for 15 s and spun for 10 min. For luciferase activity assay, 20 μl of the lysate supernatant was mixed with 100 μl of the luciferase substrate (Promega) and detected by a luminometer (Monolight 3010, luminometer PharMingen, San Diego, Calif.). For β-galactosidase activity assay, 100 μl of the supernatant was mixed with 100 μl of 2×β-galactosidase substrate [200 mM sodium phosphate buffer, pH 7.3, 2 mM MgCl2, 100 mM β-mercaptoethanol and 1.33 mg/ml o-nitrophenyl-β-D-galactopyranoside (ONPG)], and incubated at 37° C. for 30 min. β-galactosidase activity was detected by Microplate spectrophotometer (Molecular Devices Corp., Sunnyvale, Calif.) at 405 nm wavelength. Data were presented as normalized luciferase activity (means±standard deviations), defined as luciferase activity normalized to internal control β-galactosidase activity for transfection efficiency. All studies were performed in three independent experiments with duplicate assays.

hBSP promoter = test: hBSP promoter-luciferase reporter activity in transfected cells; settings: C4-2B cells; H-89 10^−8 to 10^−6 M for 2 h, then FSK 10^−6 M 16 h; concentration-dependent
Excerpt: Plasmid Construction. Genomic DNA was used in the PCR of the 0.8-kb hOC promoter inserting KpnI and XhoI sites, subsequently cloned into pGL3-Basic-luciferase reporter vector (Promega, Madison, Wis.) as described before (9). The deletion constructs, ΔA [374 bp upstream of AP1/VDRE (AV) element], ΔTst-1 (POU-factor Tst-1/Oct-6 binding site), ΔCRE (cAMP-responsive element) and ΔIRF-1 (interferon regulatory factor-i binding site) in hOC promoter/pGL3 were generated by recombinant PCR technique. The point mutation plasmids in CRE (from -643 to -636 in hOC promoter, 5′-[…]-3′) were constructed with a QuikChange Site-Directed Mutagenesis Kit (Stratagene). […]
Transfection and Luciferase Activity Assay. […] For luciferase activity assay, 20 μl of the lysate supernatant was mixed with 100 μl of the luciferase substrate (Promega) and detected by a luminometer (Monolight 3010, luminometer PharMingen, San Diego, Calif.). For β-galactosidase activity assay, 100 μl of the supernatant was mixed with 100 μl of 2×β-galactosidase substrate [200 mM sodium phosphate buffer, pH 7.3, 2 mM MgCl2, 100 mM β-mercaptoethanol and 1.33 mg/ml o-nitrophenyl-β-D-galactopyranoside (ONPG)], and incubated at 37° C. for 30 min. β-galactosidase activity was detected by Microplate spectrophotometer (Molecular Devices Corp., Sunnyvale, Calif.) at 405 nm wavelength. […]

OC mRNA = test: Semi-quantitative RT-PCR of endogenous OC mRNA; settings: LNCaP and C4-2B cells (data not shown)
Description: (§1) Reverse Transcription-Polymerase Chain Reaction (RT-PCR) Analysis. Total RNA was isolated from confluent monolayers of cells using RNAZol B (Teltest Inc., Friendswood, Tex.). Five μg of total RNA was used as template and 0.15 μg of random hexanucleotide primers were added for reverse transcription and amplification in a reaction volume of 20 μl, according to the manufacturer's instruction (Invitrogen, Carlsbad, Calif.). After RT reaction, 3-5 μl of the 1st-strand cDNA was used for PCR with a PTC-100 programmable Thermal Controller (MJ Research Inc.). The oligonucleotide primer sets used for PCR analysis of cDNA are: hOC, 5′-[…]-3′ (forward) and 5′-[…]-3′ (reverse); hBSP, 5′-[…]-3′ (forward) and 5′-[…]-3′ (reverse); and glyceraldehyde phosphate dehydrogenase (GAPDH), 5′-[…]-3′ (forward) and 5′-[…]-3′ (reverse), respectively. The thermal profile for hOC amplification is 30 cycles starting with denaturation 1 min at 94° C., followed by 1 min of annealing at 55° C. and 1 min of extension at 72° C. For hBSP amplification the thermal profile is 35 cycles starting with denaturation 1 min at 94° C., followed by 30 s of annealing at 48° C. and 40 s of extension at 72° C. The program for GAPDH amplification is 25 cycles starting with denaturation 30 s at 94° C., followed by 30 s of annealing at 60° C. and 1 min of extension at 72° C. The RT-PCR products were analyzed by 1.2% agarose gel electrophoresis. Quantity one-4.1.1 Gel Doc gel documentation software (Bio-Rad) or NIH image were used for quantification of hOC and hBSP mRNA expression normalized by GAPDH mRNA expression.

BSP mRNA = test: Semi-quantitative RT-PCR of endogenous BSP mRNA; settings: LNCaP and C4-2B cells (data not shown)
Description: as §1

Compound: O=S(=O)(NCCNCC=Cc1ccc(Br)cc1)c1cccc2cnccc12 [H-89, N-[2-(p-bromocinnamylamino)ethyl]-5-isoquinolinesulfonamide]
- ARCaP CM-mediated activation of hOC promoter activity (hOC promoter; H-89 10^−6 M 2 h, then ARCaP CM 15 μg/ml 16 h): inhibited
- PMA-induced hOC promoter activation (hOC promoter; H-89 10^−6 M 2 h, then PMA 10^−6 M 16 h): not blocked
- db cAMP-mediated activation of hOC promoter activity (hOC promoter; H-89 10^−6 M 2 h, then db cAMP 10^−3 M 16 h): inhibited
- CM-induced hOC promoter activity (hOC promoter; H-89 10^−6 M, CM harvested from C4-2B, DU145, PC3 and MG63 cell lines): nearly abolished
- FSK-stimulated hOC promoter activity (hOC promoter; H-89 10^−8 to 10^−6 M for 2 h, then FSK 10^−6 M 16 h, concentration-dependent): inhibited
- FSK-stimulated hBSP promoter activity (hBSP promoter): inhibited
- induction of endogenous OC mRNA expression by ARCaP CM or FSK (OC mRNA): inhibited
- induction of endogenous BSP mRNA expression by ARCaP CM or FSK (BSP mRNA): inhibited
